Assay results reported in the NIST ThermoML archive (doi:10.1016/j.jct.2006.01.008).

Test: mn = molality of the nth substance listed, in mol/kg
Settings: Liquid

O=[N+]([O-])[O-].[Li+] [lithium nitrate] + CO
Settings	mass density [kg/m3]
373.27 K, 30013 kPa, m1 = 1.803	827.46
373.27 K, 34987 kPa, m1 = 3.614	895.79
373.27 K, 35004 kPa, m1 = 1.803	831.77
373.27 K, 39994 kPa, m1 = 3.614	899.5
373.27 K, 39997 kPa, m1 = 1.803	835.89
373.28 K, 542 kPa, m1 = 0.5393	739.72
373.28 K, 4986 kPa, m1 = 0.5393	746.09
373.28 K, 9996 kPa, m1 = 0.5393	752.7
373.28 K, 14984 kPa, m1 = 0.5393	758.8
373.28 K, 20003 kPa, m1 = 0.5393	764.52
373.28 K, 24985 kPa, m1 = 0.5393	769.85
373.28 K, 29993 kPa, m1 = 0.5393	774.9
373.28 K, 35001 kPa, m1 = 0.5393	779.7
373.28 K, 39997 kPa, m1 = 0.5393	784.24
398.15 K, 1035 kPa, m1 = 0.2943	699.13
398.15 K, 1138 kPa, m1 = 0.8904	730.97
398.15 K, 1432 kPa, m1 = 0.1551	691.82
398.15 K, 5023 kPa, m1 = 0.8904	736.91
398.15 K, 5126 kPa, m1 = 0.1551	698.39
398.15 K, 5236 kPa, m1 = 0.2943	706.42
398.15 K, 10058 kPa, m1 = 0.8904	744.23
398.15 K, 10628 kPa, m1 = 0.1551	707.59
398.15 K, 10698 kPa, m1 = 0.2943	715.31
398.15 K, 15234 kPa, m1 = 0.1551	714.77
398.15 K, 15573 kPa, m1 = 0.8904	751.75
398.15 K, 15874 kPa, m1 = 0.2943	723.14
398.15 K, 20035 kPa, m1 = 0.8904	757.46
398.15 K, 20452 kPa, m1 = 0.2943	729.57
398.15 K, 21035 kPa, m1 = 0.1551	723.12
398.15 K, 25069 kPa, m1 = 0.8904	763.49
398.15 K, 25235 kPa, m1 = 0.2943	735.81
398.15 K, 26078 kPa, m1 = 0.1551	729.75
398.15 K, 30027 kPa, m1 = 0.1551	734.55
398.15 K, 30047 kPa, m1 = 0.8904	769.04
398.15 K, 30385 kPa, m1 = 0.2943	741.96
398.15 K, 35256 kPa, m1 = 0.2943	747.26
398.15 K, 35845 kPa, m1 = 0.8904	774.96
398.15 K, 35941 kPa, m1 = 0.1551	741.06
398.15 K, 39127 kPa, m1 = 0.2943	751.09
398.15 K, 39254 kPa, m1 = 0.8904	778.18
398.15 K, 39789 kPa, m1 = 0.1551	744.86
398.28 K, 900 kPa, m1 = 3.614	842.05
398.28 K, 4994 kPa, m1 = 3.614	846.92
398.28 K, 10001 kPa, m1 = 3.614	852.52
398.28 K, 14988 kPa, m1 = 3.614	857.76
398.28 K, 19997 kPa, m1 = 3.614	862.72
398.28 K, 24994 kPa, m1 = 3.614	867.42
398.28 K, 29993 kPa, m1 = 3.614	871.89
398.28 K, 34991 kPa, m1 = 3.614	876.17
398.28 K, 39987 kPa, m1 = 3.614	880.27
398.29 K, 904 kPa, m1 = 0.5393	712.1
398.29 K, 906 kPa, m1 = 1.803	771.63
398.29 K, 4994 kPa, m1 = 1.803	777.53
398.29 K, 4996 kPa, m1 = 0.5393	719.24
398.29 K, 9985 kPa, m1 = 0.5393	727.14
398.29 K, 9986 kPa, m1 = 1.803	784.19
398.29 K, 14989 kPa, m1 = 1.803	790.36
398.29 K, 15010 kPa, m1 = 0.5393	734.37
398.29 K, 19986 kPa, m1 = 1.803	796.11
398.29 K, 20018 kPa, m1 = 0.5393	740.98
398.29 K, 24995 kPa, m1 = 1.803	801.52
398.29 K, 25002 kPa, m1 = 0.5393	747.09
398.29 K, 29986 kPa, m1 = 1.803	806.59
398.29 K, 30001 kPa, m1 = 0.5393	752.82
398.29 K, 34984 kPa, m1 = 0.5393	758.22
398.29 K, 34988 kPa, m1 = 1.803	811.42
398.29 K, 39996 kPa, m1 = 0.5393	763.34
398.29 K, 40001 kPa, m1 = 1.803	816.03
